Laboratory results taken from patent US10071051B2, “WT1 peptide cancer vaccine composition for transdermal administration” (NITTO DENKO CORPORATION, priority 2013, dated 2018).

What follows are compounds tested on IFN-γ-producing cells (antigen-specific cellular immunity) (assay: Mouse immunization test 3 (liquid formulation for external use), IFN-γ ELISPOT). Settings: compared with acid-free comparative example.
Type: in vivo, C57BL/6 mouse
Method: (§1) Mouse immunization test was performed with the cream formulations using a model animal for immunological evaluation. Evaluation of the immunity induction level was performed by the ELISPOT method. Specifically, the hair of the back of the mouse was cut. The mouse was kept until it recovered from the skin damage due to the hair cutting. After that, a sample was applied to the back of the mouse for the predetermined time, and then removed. Then, the mouse was kept for predetermined days and the level of the antigen-specific cellular immunity was evaluated. After predetermined days from the application of the sample, the spleen was isolated and a spleen cell suspension was prepared. Spleen cells (3×10^6 cells/well) and the antigen peptide (100 μM) together with the culturing medium were placed into a well of an ELISPOT plate on which an anti-mouse IFN-γ antibody had been immobilized. The plate was cultured for 20 hours under the condition of 37° C. and 5% CO2. The number of the spots representing IFN-γ-producing cells (spot number/3×10^6 cells) was evaluated by the ELISPOT method. In all cases, 4 mg of the cream formulation was applied once for 24 hours and the spleen was isolated 6 days after the completion of the application.
Mouse Immunization Test 3 (Liquid Formulation for External Use)
Using a liquid formulation for external use produced as described above, mouse immunization test was performed in the same manner as that in the mouse immunization test 1. The dose was 67 μL as described above. The liquid formulation was applied once for 24 hours/week and a spleen was isolated 6 days after completion of the application. The mouse used was a C57BL/6.

Row | Compound | cellular immunity induction, in words (acid added to liquid formulation)
1 | O=C(O)CC(O)C(=O)O (racemic) [malic acid] | effective
2 | O=C(O)/C=C\C(=O)O [maleic acid] | effective
3 | O=C(O)CC(O)(CC(=O)O)C(=O)O [citric acid] | effective
4 | O=C(O)c1ccccc1O [salicylic acid] | effective
5 | CS(=O)(=O)O [methanesulfonic acid] | effective
6 | CC(O)C(=O)O (stereo not drawn) [lactic acid] | effective

What follows are compounds tested on IFN-γ-producing cells (antigen-specific cellular immunity) (assay: Mouse immunization test 2 (tape preparation), IFN-γ ELISPOT). Settings: compared with acid-free comparative example.
Type: in vivo, genetically modified mouse
Method: as §1
Mouse Immunization Test 2 (Tape Preparation)
Using thus obtained tape preparation, mouse immunization test 2 was performed in the same manner as in the mouse immunization test 1. The preparation was applied once for 24 hours/week and a spleen was isolated 6 days after administration. Genetically modified mouse which can be used to evaluate the cellular immunity inducing ability of the HLA-A*0201 type MHC restricted peptide was used as model animal for immunological evaluation.
In Example 69, the skin was injured with a microcutter (MICRO FEATHER No. 7330G, manufactured by FEATHER) before the application of the preparation.

Row | Compound | cellular immunity induction, in words (acid blended in tape preparation)
7 | CCCCCCCCCC(=O)O [decanoic acid] | strong cellular immunity was induced
8 | CCCCCCCCCCCCCC(=O)O [myristic acid] | excellent results
9 | CCCCCCCC/C=C\CCCCCCCC(=O)O [oleic acid] | excellent results
10 | CCCCCCCCCCCC(=O)O [lauric acid] | excellent results
11 | CC(C)CCCCCCCCCCCCCCC(=O)O [isostearic acid] | excellent results
12 | CC(O)C(=O)O (stereo not drawn) [lactic acid] | excellent results
